Legend:
[1] = tested on: MDA-MB-231 tumors; experiment: Human breast xenograft, tumor volume; details: iv Days 0, 7 and 14, compound C 3.0 mg/kg, 4-S […], 12-S […]
Procedure: (§1) Female athymic nu/nu mice (Harlan Laboratories Models, S.L. Barcelona, Spain or Envigo, Spain) were utilized for all experiments. Animal were housed in individually ventilated cages Sealsafe® Plus, Techniplast S.P.A.), up to ten per cage on a 12-hour light-dark cycle at 21-23° C. and 40-60% humidity. […] Animals were acclimated for at least 5 days prior to tumor implantation with a tumor cell suspension.
MDA-MB-231 cells were maintained in vitro at 37° C. with 5% CO2 in Dulbecco's Modified Eagle's Medium (Sigma-Aldrich, Co). Culture cells were passaged every 3 to 5 days upon reaching confluence.
(§2) Treatment tolerability was assessed by monitoring body weight evolution, clinical signs of systemic toxicity, as well as evidences of local damage in the injection site.
(§3) In Xenograft Studies with Other Cell Lines: • Tumor volume was calculated using the equation (a·b^2)/2, where a: length (longest diameter) and b: width (shortest diameter) were measured in mm by using digital caliper (Fowler Sylvac, S235PAT).
(§4) Treatments producing >20% lethality and/or 20% net body weight loss were considered toxic.

[2] = tested on: A2780 tumors; experiment: Human ovarian xenograft, tumor volume; details: iv Days 0, 7 and 14, compound C 3.0 mg/kg, 4-S […], 12-S […]
Procedure: as §1
Culture cells were passaged every 3 to 5 days upon reaching confluence. Each animal was subcutaneously implanted (on the right flank using 26G needle and a 1 cc syringe) at 4-6 weeks of age with 10×10^6 A2780 cells suspended in 0.05 mL of a solution consisting of 50% Matrigel® (Corning Incorporated Life Sciences) and 50% medium without serum or antibiotics.
as §2, §3, §4

[3] = tested on: H460 tumors; experiment: Human lung (NSCLC) xenograft, tumor volume; details: iv Days 0, 7 and 14, compound C 3.0 mg/kg, 4-S […], 12-S […]
Procedure: as §1
H460 cells were maintained in vitro at 37° C. with 5% CO2 in Dulbecco's Modified Eagle's Medium (Sigma-Aldrich, Co). Culture cells were passaged every 3 to 5 days upon reaching confluence. Each animal was subcutaneously implanted (on the right flank using 26G needle and a 1 cc syringe) at 4-6 weeks of age with 5×10^6 H460 cells suspended in 0.05 mL of a solution consisting of 50% Matrigel® (Corning Incorporated Life Sciences) and 50% medium without serum or antibiotics.
as §2, §3, §4
Tables and figures summarize the data obtained from complete experimental groups, i.e. those groups keeping the initial number of animals, n=8-10.

[4] = tested on: HGC27 tumors; experiment: Human gastric xenograft, tumor volume; details: iv Days 0, 7 and 14, compound C 3.0 mg/kg, 4-S […], 12-S […]
Procedure: as §1
HGC27 cells were maintained in vitro at 37° C. with 5% CO2 in Iscove's Modified Dulbecco's Medium (Sigma Aldrich, Co). Culture cells were passage every 3 to 5 days on reaching confluence. Each animal was subcutaneously implanted (on the right flank using 26G needle and a 1 cc syringe) at 4-6 weeks of age with 5×10^6 HGC-27 cells suspended in 0.05 mL of a solution consisting of 50% Matrigel® (Corning Incorporated Life Sciences), 50% medium without serum or antibiotics.
as §2, §3, §4

[5] = tested on: HT1080 tumors; experiment: Human fibrosarcoma xenograft, total diameter (tumor + leg); details: iv Days 0, 7 and 14, compound C 3.0 mg/kg, 4-S […], 12-S […]
[6] = MTMD (Maximum Tolerated Multiple Dose) determination, iv weekly x 3; assay type: in vivo; details: mice; iv/Q7d × 3
Text: Female CD-1 or Athymic Nude-Fox1 nu/nu mice (Envigo) were utilized for all experiments. […] Animals were acclimated for five days prior to being individually tattoo-identified. Animal protocols were reviewed and approved according to the regional Institutional Animal Care and Use Committees.
Mice were randomly allocated into experimental groups and intravenously administered, once for the MTD (Maximum Tolerated Dose) determination or one administration a week during three consecutive weeks, for the MTMD (Maximum Tolerated Multiple Dose) determination study. The animals were administered with white formulation or with compound dissolved in the experimental formulation at different concentrations. The volume administered was always […]. Once administered, animals were monitored for clinical signs of systemic toxicity, changes in body weight and mortality up to 14 days after the administration.

COc1c(C)cc2c(c1O)[C@@H]1[C@@H]3[C@@H]4SC[C@]5(N[C@H](CN)Cc6c5[nH]c5ccccc65)C(=O)OC[C@@H](c5c6c(c(C)c(OC(C)=O)c54)OCO6)N3[C@@H](O)[C@H](C2)N1C [Compound 12-S]
Median Tumor Volume ([1]; Day 2.0): 229.9 mm^3
Median Tumor Volume ([1]; Day 5.0): 290.5 mm^3
Median Tumor Volume ([1]; Day 7.0): 398.2 mm^3
Median Tumor Volume ([1]; Day 9.0): 508.9 mm^3
Median Tumor Volume ([1]; Day 12.0): 602.5 mm^3
Median Tumor Volume ([1]; Day 14.0): 751.0 mm^3
Median Tumor Volume ([1]; Day 16.0): 977.7 mm^3
Median Tumor Volume ([1]; Day 19.0): 1252.6 mm^3
Median Tumor Volume ([1]; Day 21.0): 1560.7 mm^3
Median Tumor Volume ([1]; Day 23.0): 2005.9 mm^3
Median Tumor Volume ([1]; Day 26.0): 2066.2 mm^3
Median Tumor Volume ([2]; Day 2.0): 262.1 mm^3
Median Tumor Volume ([2]; Day 5.0): 628.6 mm^3
Median Tumor Volume ([2]; Day 7.0): 976.3 mm^3
Median Tumor Volume ([2]; Day 9.0): 1387.5 mm^3
Median Tumor Volume ([2]; Day 12.0): 1666.0 mm^3
Median Tumor Volume ([3]; Day 2.0): 460.5 mm^3
Median Tumor Volume ([3]; Day 5.0): 922.4 mm^3
Median Tumor Volume ([3]; Day 7.0): 1252.1 mm^3
Median Tumor Volume ([3]; Day 9.0): 1409.4 mm^3
Median Tumor Volume ([3]; Day 12.0): 1531.7 mm^3
Median Tumor Volume ([4]; Day 2.0): 411.9 mm^3
Median Tumor Volume ([4]; Day 5.0): 834.1 mm^3
Median Tumor Volume ([4]; Day 7.0): 1176.6 mm^3
Median Tumor Volume ([4]; Day 9.0): 1531.6 mm^3
Median Tumor Volume ([4]; Day 12.0): 2030.2 mm^3
Total diameter (tumor + leg) ([5]; Day 2.0): 8.2 mm
Total diameter (tumor + leg) ([5]; Day 5.0): 8.6 mm
Total diameter (tumor + leg) ([5]; Day 7.0): 9.5 mm
Total diameter (tumor + leg) ([5]; Day 9.0): 10.0 mm
Total diameter (tumor + leg) ([5]; Day 12.0): 11.2 mm
Total diameter (tumor + leg) ([5]; Day 14.0): 11.7 mm
Total diameter (tumor + leg) ([5]; Day 16.0): 12.7 mm
Total diameter (tumor + leg) ([5]; Day 19.0): 13.5 mm
Total diameter (tumor + leg) ([5]; Day 21.0): 14.4 mm
Total diameter (tumor + leg) ([5]; Day 23.0): 16.5 mm

COc1ccc2oc3c(c2c1)CCN[C@]31CS[C@@H]2c3c(OC(C)=O)c(C)c4c(c3[C@H](COC1=O)N1[C@@H]2[C@H]2c3c(cc(C)c(OC)c3O)C[C@@H]([C@@H]1O)N2C)OCO4 [Compound 35]
MTMD [6]: 0.25 mg/kg

Source: patent publication US12384800B2, “Antitumoral compounds” (priority 2017, dated 2025)
